From patent US12071443B2, “Prolyl hydroxylase domain-containing protein (PHD) inhibitors and uses thereof” (Insilico Medicine IP Limited, priority 2021, dated 2024)

Columns and labels:
PHD2 = PHD2 (Homo sapiens, UniProt Q9GZT9); test: PHD2 enzymatic assay (AlphaScreen); format: biochemical; conditions: PHD2 enzyme, AlphaScreen, IC50 from % inhibition; read-out: PHD2
[1] = test system: Caco2-HIF1α-HiBiT-clone-1 cells; test: Caco-2 HIF1α-HiBiT assay; format: cell-based; conditions: Homo sapiens, Caco-2; Caco2-HIF1α-HiBiT-clone-1 cells, 6 h incubation, luminescence; read-out: Caco2-HIF1α-HiBit assay - EC50

Sequence of PHD2 (Q9GZT9 whole entry): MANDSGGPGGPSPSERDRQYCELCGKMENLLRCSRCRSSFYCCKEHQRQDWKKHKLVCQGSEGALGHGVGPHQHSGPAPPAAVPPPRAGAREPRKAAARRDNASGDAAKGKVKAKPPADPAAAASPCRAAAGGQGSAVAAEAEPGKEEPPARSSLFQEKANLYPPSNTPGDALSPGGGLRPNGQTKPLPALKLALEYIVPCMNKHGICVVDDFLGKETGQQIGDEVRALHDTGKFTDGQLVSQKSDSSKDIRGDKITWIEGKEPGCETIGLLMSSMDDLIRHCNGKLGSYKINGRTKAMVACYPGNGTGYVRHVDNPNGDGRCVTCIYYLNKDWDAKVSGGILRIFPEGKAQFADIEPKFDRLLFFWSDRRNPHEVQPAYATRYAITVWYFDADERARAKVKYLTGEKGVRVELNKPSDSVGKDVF

| SMILES | IC50 (PHD2) | EC50 [1] |
| --- | --- | --- |
| N#Cc1ccc(CNC(=O)c2ncc3nc(N4CCN(CCO)CC4)ccc3c2O)cn1 [Example 74] | < 5 nM | 2500 to 5000 nM |
| COc1c(C(=O)NCc2ccc(C#N)nc2)ncc2nc(N3CCOCC3)ccc12 [Example 163, N-((6-cyanopyridin-3-yl)methyl)-5-methoxy-2-morpholino-1,7-naphthyridine-6-carboxamide] | 100 to 1000 nM | – |
| CC(C)(C)OC(=O)NC1CN(c2ccc3c(O)c(C(=O)NCc4ccc(C#N)nc4)ncc3n2)C1 [Example 127] | < 5 nM | < 2500 nM |
| CC1(C)CCN(c2ccc3c(O)c(C(=O)NCc4ccc(C#N)nc4)ncc3n2)CC1 [Example 155] | – | 7500 to 10000 nM |
| CC(C)(C)OC(=O)NC1CCN(c2ccc3c(O)c(C(=O)NCc4ccc(C#N)nc4)ncc3n2)C1=O (centres unmarked) [Example 144] | 5 to 20 nM | 2500 to 5000 nM |
| COC(=O)[C@H]1CN(c2ccc3c(O)c(C(=O)NCc4ccc(C#N)nc4)ncc3n2)CCN1C1CC1 [Example 89] | < 5 nM | 2500 to 5000 nM |
| N#Cc1ccc(CNC(=O)c2ncc3nc(N4CCNCC4)ccc3c2O)c(Cl)c1 [Example 5, N-(2-chloro-4-cyanobenzyl)-5-hydroxy-2-(piperazin-1-yl)-1,7-naphthyridine-6-carboxamide] | 5 to 20 nM | 7500 to 10000 nM |
| N#Cc1ccc([C@@H](CO)NC(=O)c2ncc3nc(N4CCOCC4)ccc3c2O)cn1 [Example 64] | 100 to 1000 nM | 10000 to 100000 nM |
| N#Cc1ccc(CNC(=O)c2ncc3nc(N4CCOC(=O)C4)ccc3c2O)cn1 [Example 85, N-((6-cyanopyridin-3-yl)methyl)-5-hydroxy-2-(2-oxomorpholino)-1,7-naphthyridine-6-carboxamide] | < 5 nM | 10000 to 100000 nM |
| N#Cc1ccc(CNC(=O)c2ncc3nc(N4CCN[C@@H](C(=O)O)C4)ccc3c2O)cn1 [Example 51, (R)-4-(6-(((6-cyanopyridin-3-yl)methyl)carbamoyl)-5-hydroxy-1,7-naphthyridin-2-yl)piperazine-2-carboxylic acid] | < 5 nM | 10000 to 100000 nM |
| CC[C@H]1CN(C(=O)OC(C)(C)C)CCN1c1ccc2c(O)c(C(=O)NCc3ccc(C#N)nc3)ncc2n1 [Example 151] | – | 2500 to 5000 nM |
| CC(C)(C)OC(=O)N1CCN(c2ccc3c(O)c(C(=O)NCc4ccc(C#N)nc4)ncc3n2)CC1 [Example 29, tert-butyl 4-(6-(((6-cyanopyridin-3-yl)methyl)carbamoyl)-5-hydroxy-1,7-naphthyridin-2-yl)piperazine-1-carboxylate] | < 5 nM | < 2500 nM |
| CN1CCN(c2ccc3c(O)c(C(=O)NCc4ccc(C#N)cc4Cl)ncc3n2)CC1=O [Example 19] | 5 to 20 nM | 10000 to 100000 nM |
| CC1(OC(=O)N2CCN(c3ccc4c(O)c(C(=O)NCc5ccc(C#N)nc5)ncc4n3)CC2)CC1 [Example 137] | < 5 nM | < 2500 nM |
| N#Cc1ncc(CNC(=O)c2ncc3nc(N4CCOCC4)ccc3c2O)cn1 [Example 23] | < 5 nM | 5000 to 7500 nM |
| COc1cc(C#N)ncc1CNC(=O)c1ncc2nc(N3CCOCC3)ccc2c1O [Example 32] | < 5 nM | 10000 to 100000 nM |
| CC(C)(C)OC(=O)N1CCN(c2ccc3c(O)c(C(=O)NCc4ccc(C#N)nc4)ncc3n2)C[C@@H]1CO [Example 47] | < 5 nM | < 2500 nM |
| N#Cc1ccc(CNC(=O)c2ncc3nc(N4CCOC4=O)ccc3c2O)cn1 [Example 103] | < 5 nM | 2500 to 5000 nM |

| SMILES | IC50 (PHD2) | EC50 [1] |
| --- | --- | --- |
| N#Cc1ccc(COC(=O)c2ncc3nc(N4CC[C@@H](O)C4)ccc3c2O)cn1 [Example 15, (6-cyanopyridin-3-yl)methyl (R)-5-hydroxy-2-(3-hydroxypyrrolidin-1-yl)-1,7-naphthyridine-6-carboxylate] | 1000 to 100000 nM | 10000 to 100000 nM |
| CC(C)OC(=O)CC1CN(c2ccc3c(O)c(C(=O)NCc4ccc(C#N)nc4)ncc3n2)C1 [Example 154] | – | < 2500 nM |
| CC(=O)N1CCN(c2ccc3c(O)c(C(=O)NCc4ccc(C#N)nc4)ncc3n2)C[C@@H]1CO [Example 46, (R)-2-(4-acetyl-3-(hydroxymethyl)piperazin-1-yl)-N-((6-cyanopyridin-3-yl)methyl)-5-hydroxy-1,7-naphthyridine-6-carboxamide] | < 5 nM | 10000 to 100000 nM |
| CC(C)(C)OC(=O)N[C@@H]1CN(c2ccc3c(O)c(C(=O)NCc4ccc(C#N)nc4)ncc3n2)C[C@@H]1F [Example 142] | 5 to 20 nM | 2500 to 5000 nM |
| N#Cc1ccc(CNC(=O)c2ncc3nc(N4CCN[C@@H](CO)C4)ccc3c2O)c(Cl)c1 [Example 60, (R)—N-(2-chloro-4-cyanobenzyl)-5-hydroxy-2-(3-(hydroxymethyl)piperazin-1-yl)-1,7-naphthyridine-6-carboxamide] | 5 to 20 nM | 10000 to 100000 nM |
| N#Cc1ccc(CNC(=O)c2ncc3nc(N4CCNCC4=O)ccc3c2O)cn1 [Example 102, N-((6-cyanopyridin-3-yl)methyl)-5-hydroxy-2-(2-oxopiperazin-1-yl)-1,7-naphthyridine-6-carboxamide] | 100 to 1000 nM | – |
| CC(C)(C)OC(=O)NC1CCN(c2ccc3c(O)c(C(=O)NCc4ccc(C#N)nc4)ncc3n2)CC1 [Example 123] | < 5 nM | 2500 to 5000 nM |
| N#Cc1ccc(CNC(=O)c2ncc3nc(N4CC(O)(CO)C4)ccc3c2O)cn1 [Example 119] | < 5 nM | 10000 to 100000 nM |
| N#Cc1ccc(CNC(=O)c2ncc3nc(N4CCN(C5CC5)[C@H](CO)C4)ccc3c2O)c(Cl)c1 [Example 71] | 5 to 20 nM | 2500 to 5000 nM |
| CN1CCN(c2ccc3c(O)c(C(=O)NCc4ccc(C#N)nc4)ncc3n2)CC1=O [Example 66] | < 5 nM | 10000 to 100000 nM |
| CN1CCN(c2ccc3c(O)c(C(=O)NCc4ccc(C#N)cc4Cl)ncc3n2)C[C@@H]1CO [Example 59, (R)—N-(2-chloro-4-cyanobenzyl)-5-hydroxy-2-(3-(hydroxymethyl)-4-methylpiperazin-1-yl)-1,7-naphthyridine-6-carboxamide] | < 5 nM | 2500 to 5000 nM |
| CC(=O)N1CCN(c2ccc3c(O)c(C(=O)NCc4ccc(C#N)cc4Cl)ncc3n2)C[C@@H]1CO [Example 63, (R)-2-(4-acetyl-3-(hydroxymethyl)piperazin-1-yl)-N-(2-chloro-4-cyanobenzyl)-5-hydroxy-1,7-naphthyridine-6-carboxamide] | 5 to 20 nM | 7500 to 10000 nM |
| CC(C)(C)OC(=O)N1CCN(c2ccc3c(O)c(C(=O)NCc4ccc(C#N)nc4)ncc3n2)C[C@@H]1C#N [Example 132] | < 5 nM | 5000 to 7500 nM |
| CCOC(=O)CC1CN(c2ccc3c(O)c(C(=O)NCc4ccc(C#N)nc4)ncc3n2)C1 [Example 153] | – | 2500 to 5000 nM |
| Cc1cc(C#N)ncc1CNC(=O)c1ncc2nc(N3CCN(C(=O)OC(C)(C)C)CC3)ccc2c1O [Example 135] | – | < 2500 nM |
| N#Cc1ccc(CNC(=O)c2ncc3nc(N4CCOCC4)ncc3c2O)cn1 [Example 31] | – | 10000 to 100000 nM |
| N#Cc1cnc(CNC(=O)c2ncc3nc(N4CCOCC4)ccc3c2O)cn1 [Example 33] | – | 5000 to 7500 nM |
| CC(C)(C)OC(=O)N1CCN(c2ccc3c(O)c(C(=O)NCc4cnc(C#N)cn4)ncc3n2)CC1 [Example 134, tert-butyl 4-(6-(((5-cyanopyrazin-2-yl)methyl)carbamoyl)-5-hydroxy-1,7-naphthyridin-2-yl)piperazine-1-carboxylate] | – | 10000 to 100000 nM |
